ChEMBL document CHEMBL3046635, “Synthesis and Herbicidal Activity of New Pyrazole-4-carboxamide Derivatives” (J Pestic Sci, 2004)
Active and inactive are the calls of the source.

Tests used:
[1] = system: Oryza sativa; test: Phytotoxicity against Oryza sativa cv. Koshihikari (rice) at 500 g a.i/ha measured after 14 days; type: organism-based; details: in vivo, 336 h
[2] = system: Eleocharis acicularis; test: Pre-emergence herbicidal activity against Eleocharis acicularis at 500 g a.i/ha measured after 14 days; type: functional, organism-based
[3] = system: Pontederia vaginalis; test: Pre-emergence herbicidal activity against Monochoria vaginalis at 500 g a.i/ha measured after 14 days; type: functional, organism-based
[4] = system: Schoenoplectiella juncoides; test: Pre-emergence herbicidal activity against Schoenoplectiella juncoides at 500 g a.i/ha measured after 14 days; type: functional, organism-based
[5] = system: Ammannia multiflora; test: Pre-emergence herbicidal activity against Ammannia multiflora at 500 g a.i/ha measured after 14 days; type: functional, organism-based
[6] = system: Elatine triandra; test: Pre-emergence herbicidal activity against Elatine triandra at 500 g a.i/ha measured after 14 days; type: functional, organism-based
[7] = system: Rotala indica; test: Pre-emergence herbicidal activity against Rotala indica at 500 g a.i/ha measured after 14 days; type: functional, organism-based
[8] = system: Lindernia procumbens; test: Pre-emergence herbicidal activity against Lindernia procumbens at 500 g a.i/ha measured after 14 days; type: functional, organism-based
[9] = system: Echinochloa oryzicola; test: Pre-emergence herbicidal activity against Echinochloa oryzicola at 500 g a.i/ha measured after 14 days; type: functional, organism-based
[10] = system: Cyperus difformis; test: Pre-emergence herbicidal activity against Cyperus difformis at 500 g a.i/ha measured after 14 days; type: functional, organism-based
[11] = system: Eleocharis acicularis; test: Post-emergence herbicidal activity against Eleocharis acicularis assessed as bleaching of stem/leaf parts; type: functional, organism-based; further: test concentration or dose not given here
[12] = system: Eleocharis acicularis; test: Pre-emergence herbicidal activity against Eleocharis acicularis assessed as bleaching of stem/leaf parts; type: functional, organism-based
[13] = system: Ammannia multiflora; test: Pre-emergence herbicidal activity against Ammannia multiflora assessed as bleaching of stem/leaf parts; type: functional, organism-based
[14] = system: Rotala indica; test: Pre-emergence herbicidal activity against Rotala indica assessed as bleaching of stem/leaf parts; type: functional, organism-based
[15] = system: Elatine triandra; test: Pre-emergence herbicidal activity against Elatine triandra assessed as bleaching of stem/leaf parts; type: functional, organism-based
[16] = system: Lindernia procumbens; test: Pre-emergence herbicidal activity against Lindernia procumbens assessed as bleaching of stem/leaf parts; type: functional, organism-based
[17] = system: Schoenoplectiella juncoides; test: Pre-emergence herbicidal activity against Schoenoplectiella juncoides assessed as bleaching of stem/leaf parts; type: functional, organism-based
[18] = system: Pontederia vaginalis; test: Pre-emergence herbicidal activity against Monochoria vaginalis assessed as bleaching of stem/leaf parts; type: functional, organism-based
[19] = system: Cyperus difformis; test: Pre-emergence herbicidal activity against Cyperus difformis assessed as bleaching of stem/leaf parts; type: functional, organism-based
[20] = system: Echinochloa oryzicola; test: Pre-emergence herbicidal activity against Echinochloa oryzicola assessed as bleaching of stem/leaf parts; type: functional, organism-based
[21] = system: Ammannia multiflora; test: Post-emergence herbicidal activity against Ammannia multiflora assessed as bleaching of stem/leaf parts; type: functional, organism-based; further: test concentration or dose not given here
[22] = system: Elatine triandra; test: Post-emergence herbicidal activity against Elatine triandra assessed as bleaching of stem/leaf parts; type: functional, organism-based; further: test concentration or dose not given here
[23] = system: Rotala indica; test: Post-emergence herbicidal activity against Rotala indica assessed as bleaching of stem/leaf parts; type: functional, organism-based; further: test concentration or dose not given here
[24] = system: Schoenoplectiella juncoides; test: Post-emergence herbicidal activity against Schoenoplectiella juncoides assessed as bleaching of stem/leaf parts; type: functional, organism-based; further: test concentration or dose not given here
[25] = system: Lindernia procumbens; test: Post-emergence herbicidal activity against Lindernia procumbens assessed as bleaching of stem/leaf parts; type: functional, organism-based; further: test concentration or dose not given here
[26] = system: Pontederia vaginalis; test: Post-emergence herbicidal activity against Monochoria vaginalis assessed as bleaching of stem/leaf parts; type: functional, organism-based; further: test concentration or dose not given here
[27] = system: Cyperus difformis; test: Post-emergence herbicidal activity against Cyperus difformis assessed as bleaching of stem/leaf parts; type: functional, organism-based; further: test concentration or dose not given here
[28] = system: Echinochloa oryzicola; test: Post-emergence herbicidal activity against Echinochloa oryzicola assessed as bleaching of stem/leaf parts; type: functional, organism-based; further: test concentration or dose not given here

`Cc1c(C(=O)NOc2ccc(F)cc2F)c(OCc2cccc(C(F)(F)F)c2)nn1C` was tested, and the Activity [1] was “Non-toxic”, the Activity [2] was “inactive” and the Activity [3] was “inactive”. The Activity [4] was “Active”, the Activity [5] was “inactive” and the Activity [6] was “inactive”. The Activity [7] was “inactive”, the Activity [8] was “inactive” and the Activity [9] was “inactive”. For the same molecule, the Activity [10] was “inactive”, the Activity [11] was “Active” and the Activity [12] was “Active”. The Activity [13] was “Active”, the Activity [14] was “Active” and the Activity [15] was “Active”. The Activity [16] was “Active”, the Activity [17] was “Active” and the Activity [18] was “Active”. The Activity [19] was “Active”, the Activity [20] was “Active” and the Activity [21] was “Active”. For the same molecule, the Activity [22] was “Active”, the Activity [23] was “Active” and the Activity [24] was “Active”. For the same molecule, the Activity [25] was “Active”, the Activity [26] was “Active” and the Activity [27] was “Active”. For the same molecule, the Activity [28] was “Active”.

In the case of `CNC(=O)c1cn(C)nc1OCc1cccc(C(F)(F)F)c1`, the Activity [1] is reported as “Non-toxic”, the Activity [2] is reported as “inactive” and the Activity [3] is reported as “inactive”. For the same molecule, the Activity [4] was “inactive”, the Activity [5] was “inactive” and the Activity [6] was “inactive”. For the same molecule, the Activity [7] was “inactive”, the Activity [8] was “inactive” and the Activity [9] was “inactive”. The Activity [10] was “inactive”, the Activity [11] was “Active” and the Activity [12] was “Active”. The Activity [13] was “Active”, the Activity [14] was “Active” and the Activity [15] was “Active”. The Activity [16] was “Active”, the Activity [17] was “Active” and the Activity [18] was “Active”. For the same molecule, the Activity [19] was “Active”, the Activity [20] was “Active” and the Activity [21] was “Active”. The Activity [22] was “Active”, the Activity [23] was “Active” and the Activity [24] was “Active”. For the same molecule, the Activity [25] was “Active”, the Activity [26] was “Active” and the Activity [27] was “Active”. The Activity [28] was “Active”.

For `CCCn1cc(C(=O)NOCC)c(OCc2cccc(C(F)(F)F)c2)n1`, the Activity [1] was “Non-toxic”, the Activity [2] was “inactive” and the Activity [3] was “inactive”. For the same molecule, the Activity [4] was “inactive”, the Activity [5] was “inactive” and the Activity [6] was “inactive”. The Activity [7] was “inactive”, the Activity [8] was “inactive” and the Activity [9] was “inactive”. The Activity [10] was “inactive”, the Activity [11] was “Active” and the Activity [12] was “Active”. For the same molecule, the Activity [13] was “Active”, the Activity [14] was “Active” and the Activity [15] was “Active”. For the same molecule, the Activity [16] was “Active”, the Activity [17] was “Active” and the Activity [18] was “Active”. The Activity [19] was “Active”, the Activity [20] was “Active” and the Activity [21] was “Active”. The Activity [22] was “Active”, the Activity [23] was “Active” and the Activity [24] was “Active”. For the same molecule, the Activity [25] was “Active”, the Activity [26] was “Active” and the Activity [27] was “Active”. For the same molecule, the Activity [28] was “Active”.

`CCONC(=O)c1cn(C(C)(C)C)nc1OCc1cccc(C(F)(F)F)c1` was tested, and the Activity [1] was “Non-toxic”, the Activity [2] was “inactive” and the Activity [3] was “inactive”. The Activity [4] was “inactive”, the Activity [5] was “inactive” and the Activity [6] was “inactive”. The Activity [7] was “inactive”, the Activity [8] was “inactive” and the Activity [9] was “inactive”. The Activity [10] was “inactive”, the Activity [11] was “Active” and the Activity [12] was “Active”. The Activity [13] was “Active”, the Activity [14] was “Active” and the Activity [15] was “Active”. For the same molecule, the Activity [16] was “Active”, the Activity [17] was “Active” and the Activity [18] was “Active”. For the same molecule, the Activity [19] was “Active”, the Activity [20] was “Active” and the Activity [21] was “Active”. The Activity [22] was “Active”, the Activity [23] was “Active” and the Activity [24] was “Active”. The Activity [25] was “Active”, the Activity [26] was “Active” and the Activity [27] was “Active”. The Activity [28] was “Active”.

For `Cn1cc(C(=O)N2CCCC2)c(OCc2cccc(C(F)(F)F)c2)n1`, the Activity [1] was “Non-toxic”, the Activity [2] was “inactive” and the Activity [3] was “inactive”. The Activity [4] was “inactive”, the Activity [5] was “inactive” and the Activity [6] was “inactive”. For the same molecule, the Activity [7] was “inactive”, the Activity [8] was “inactive” and the Activity [9] was “inactive”. The Activity [10] was “inactive”, the Activity [11] was “Active” and the Activity [12] was “Active”. The Activity [13] was “Active”, the Activity [14] was “Active” and the Activity [15] was “Active”. For the same molecule, the Activity [16] was “Active”, the Activity [17] was “Active” and the Activity [18] was “Active”. For the same molecule, the Activity [19] was “Active”, the Activity [20] was “Active” and the Activity [21] was “Active”. For the same molecule, the Activity [22] was “Active”, the Activity [23] was “Active” and the Activity [24] was “Active”. The Activity [25] was “Active”, the Activity [26] was “Active” and the Activity [27] was “Active”. For the same molecule, the Activity [28] was “Active”.

For `Cn1cc(C(=O)Nc2ccc(C(C)(C)C)cc2)c(OCc2cccc(C(F)(F)F)c2)n1`, the Activity [1] was “Non-toxic”, the Activity [2] was “inactive” and the Activity [3] was “inactive”. The Activity [4] was “inactive”, the Activity [5] was “inactive” and the Activity [6] was “inactive”. For the same molecule, the Activity [7] was “inactive”, the Activity [8] was “inactive” and the Activity [9] was “inactive”. For the same molecule, the Activity [10] was “inactive”, the Activity [11] was “Active” and the Activity [12] was “Active”. For the same molecule, the Activity [13] was “Active”, the Activity [14] was “Active” and the Activity [15] was “Active”. For the same molecule, the Activity [16] was “Active”, the Activity [17] was “Active” and the Activity [18] was “Active”. For the same molecule, the Activity [19] was “Active”, the Activity [20] was “Active” and the Activity [21] was “Active”. The Activity [22] was “Active”, the Activity [23] was “Active” and the Activity [24] was “Active”. For the same molecule, the Activity [25] was “Active”, the Activity [26] was “Active” and the Activity [27] was “Active”. The Activity [28] was “Active”.

With `Cn1cc(C(=O)NOc2ccc(C(C)(C)C)cc2)c(OCc2cccc(C(F)(F)F)c2)n1` the Activity [1] was “Non-toxic”, the Activity [2] was “inactive” and the Activity [3] was “inactive”. The Activity [4] was “inactive”, the Activity [5] was “inactive” and the Activity [6] was “inactive”. For the same molecule, the Activity [7] was “inactive”, the Activity [8] was “inactive” and the Activity [9] was “inactive”. For the same molecule, the Activity [10] was “inactive”, the Activity [11] was “Active” and the Activity [12] was “Active”. The Activity [13] was “Active”, the Activity [14] was “Active” and the Activity [15] was “Active”. The Activity [16] was “Active”, the Activity [17] was “Active” and the Activity [18] was “Active”. For the same molecule, the Activity [19] was “Active”, the Activity [20] was “Active” and the Activity [21] was “Active”. For the same molecule, the Activity [22] was “Active”, the Activity [23] was “Active” and the Activity [24] was “Active”. For the same molecule, the Activity [25] was “Active”, the Activity [26] was “Active” and the Activity [27] was “Active”. For the same molecule, the Activity [28] was “Active”.

With `Cn1cc(C(=O)Nc2cccc(Cl)c2)c(OCc2cccc(C(F)(F)F)c2)n1` the Activity [1] was “Non-toxic”, the Activity [3] was “inactive” and the Activity [4] was “Active”. The Activity [5] was “Active”, the Activity [6] was “Active” and the Activity [7] was “Active”. The Activity [8] was “Active”, the Activity [9] was “inactive” and the Activity [10] was “inactive”. The Activity [11] was “Active”, the Activity [12] was “Active” and the Activity [13] was “Active”. The Activity [14] was “Active”, the Activity [15] was “Active” and the Activity [16] was “Active”. For the same molecule, the Activity [17] was “Active”, the Activity [18] was “Active” and the Activity [19] was “Active”. For the same molecule, the Activity [20] was “Active”, the Activity [21] was “Active” and the Activity [22] was “Active”. The Activity [23] was “Active”, the Activity [24] was “Active” and the Activity [25] was “Active”. The Activity [26] was “Active”, the Activity [27] was “Active” and the Activity [28] was “Active”.

With `Cn1cc(C(=O)Nc2ccc(S(C)(=O)=O)cc2)c(OCc2cccc(C(F)(F)F)c2)n1` the Activity [1] was “Non-toxic”, the Activity [3] was “inactive” and the Activity [4] was “inactive”. For the same molecule, the Activity [5] was “inactive”, the Activity [6] was “inactive” and the Activity [7] was “inactive”. For the same molecule, the Activity [8] was “inactive”, the Activity [9] was “inactive” and the Activity [10] was “inactive”. For the same molecule, the Activity [11] was “Active”, the Activity [12] was “Active” and the Activity [13] was “Active”. The Activity [14] was “Active”, the Activity [15] was “Active” and the Activity [16] was “Active”. The Activity [17] was “Active”, the Activity [18] was “Active” and the Activity [19] was “Active”. For the same molecule, the Activity [20] was “Active”, the Activity [21] was “Active” and the Activity [22] was “Active”. The Activity [23] was “Active”, the Activity [24] was “Active” and the Activity [25] was “Active”. The Activity [26] was “Active”, the Activity [27] was “Active” and the Activity [28] was “Active”.
